Assay results as given in ChEMBL document CHEMBL5724914, “Linking interpersonal differences in gut microbiota composition and drug biotransformation activity” (2024).

Assay: (§1) The drug is tested on Z-025 corresponding to rabbit gut metagenome with ENA study accession number: PRJEB37062 and ENA sample accession number: ERS12561824 for biotransformation under anaerobic condition. The drug concentrations were measured over 9 timepoints collected between 0 and 24 hours of incubation by liquid-chromatography-coupled mass spectrometry (LC–MS)
Conditions: 2 µM
Note: call rule not given here.

Bacterial Biotransformation	SMILES
Compound NOT metabolized	Nc1nc(NC2CC2)c2ncn([C@H]3C=C[C@@H](CO)C3)c2n1.Nc1nc(NC2CC2)c2ncn([C@H]3C=C[C@@H](CO)C3)c2n1.O=S(=O)(O)O [ABACAVIR SULFATE]
Compound NOT metabolized	CCN(CC)CCNC(=O)c1ccc(NC(C)=O)cc1 [ACECAINIDE]

Assay: as §1, with “Z-023” for “Z-025”, “to” for “to rabbit gut”, “ERS12561822” for “ERS12561824”
Conditions: 2 µM

Bacterial Biotransformation	SMILES
Compound NOT metabolized	Nc1nc(NC2CC2)c2ncn([C@H]3C=C[C@@H](CO)C3)c2n1.Nc1nc(NC2CC2)c2ncn([C@H]3C=C[C@@H](CO)C3)c2n1.O=S(=O)(O)O [ABACAVIR SULFATE]
Compound NOT metabolized	CCN(CC)CCNC(=O)c1ccc(NC(C)=O)cc1 [ACECAINIDE]

Assay: as §1, with “Z-022” for “Z-025”, “mouse” for “rabbit”, “ERS12561821” for “ERS12561824”
Conditions: 2 µM

Bacterial Biotransformation	SMILES
Compound metabolized	Nc1nc(NC2CC2)c2ncn([C@H]3C=C[C@@H](CO)C3)c2n1.Nc1nc(NC2CC2)c2ncn([C@H]3C=C[C@@H](CO)C3)c2n1.O=S(=O)(O)O [ABACAVIR SULFATE]
Compound NOT metabolized	CCN(CC)CCNC(=O)c1ccc(NC(C)=O)cc1 [ACECAINIDE]

Assay: as §1, with “Z-013” for “Z-025”, “ERS12561813” for “ERS12561824”
Conditions: 2 µM

Bacterial Biotransformation	SMILES
Compound NOT metabolized	Nc1nc(NC2CC2)c2ncn([C@H]3C=C[C@@H](CO)C3)c2n1.Nc1nc(NC2CC2)c2ncn([C@H]3C=C[C@@H](CO)C3)c2n1.O=S(=O)(O)O [ABACAVIR SULFATE]
Compound NOT metabolized	CCN(CC)CCNC(=O)c1ccc(NC(C)=O)cc1 [ACECAINIDE]

Assay: as §1, with “Z-009” for “Z-025”, “pig” for “rabbit”, “ERS12561809” for “ERS12561824”
Conditions: 2 µM

Bacterial Biotransformation	SMILES
Compound NOT metabolized	Nc1nc(NC2CC2)c2ncn([C@H]3C=C[C@@H](CO)C3)c2n1.Nc1nc(NC2CC2)c2ncn([C@H]3C=C[C@@H](CO)C3)c2n1.O=S(=O)(O)O [ABACAVIR SULFATE]
Compound NOT metabolized	CCN(CC)CCNC(=O)c1ccc(NC(C)=O)cc1 [ACECAINIDE]

Assay: as §1, with “Z-007” for “Z-025”, “rat” for “rabbit”, “ERS12561807” for “ERS12561824”
Conditions: 2 µM

Bacterial Biotransformation	SMILES
Compound NOT metabolized	Nc1nc(NC2CC2)c2ncn([C@H]3C=C[C@@H](CO)C3)c2n1.Nc1nc(NC2CC2)c2ncn([C@H]3C=C[C@@H](CO)C3)c2n1.O=S(=O)(O)O [ABACAVIR SULFATE]
Compound NOT metabolized	CCN(CC)CCNC(=O)c1ccc(NC(C)=O)cc1 [ACECAINIDE]

Assay: as §1, with “Z-006” for “Z-025”, “mouse” for “rabbit”, “ERS12561806” for “ERS12561824”
Conditions: 2 µM

Bacterial Biotransformation	SMILES
Compound NOT metabolized	Nc1nc(NC2CC2)c2ncn([C@H]3C=C[C@@H](CO)C3)c2n1.Nc1nc(NC2CC2)c2ncn([C@H]3C=C[C@@H](CO)C3)c2n1.O=S(=O)(O)O [ABACAVIR SULFATE]
Compound NOT metabolized	CCN(CC)CCNC(=O)c1ccc(NC(C)=O)cc1 [ACECAINIDE]

Assay: as §1, with “Z-004” for “Z-025”, “to” for “to rabbit gut”, “ERS12561804” for “ERS12561824”
Conditions: 2 µM

Bacterial Biotransformation	SMILES
Compound metabolized	Nc1nc(NC2CC2)c2ncn([C@H]3C=C[C@@H](CO)C3)c2n1.Nc1nc(NC2CC2)c2ncn([C@H]3C=C[C@@H](CO)C3)c2n1.O=S(=O)(O)O [ABACAVIR SULFATE]
Compound NOT metabolized	CCN(CC)CCNC(=O)c1ccc(NC(C)=O)cc1 [ACECAINIDE]

Assay: as §1, with “WLS-350” for “Z-025”, “human” for “rabbit”, “ERS12561789” for “ERS12561824”
Conditions: 2 µM

Bacterial Biotransformation	SMILES
Compound metabolized	Nc1nc(NC2CC2)c2ncn([C@H]3C=C[C@@H](CO)C3)c2n1.Nc1nc(NC2CC2)c2ncn([C@H]3C=C[C@@H](CO)C3)c2n1.O=S(=O)(O)O [ABACAVIR SULFATE]
Compound NOT metabolized	CCN(CC)CCNC(=O)c1ccc(NC(C)=O)cc1 [ACECAINIDE]

Assay: as §1, with “WLS-073” for “Z-025”, “human” for “rabbit”, “ERS12561749” for “ERS12561824”
Conditions: 2 µM

Bacterial Biotransformation	SMILES
Compound metabolized	Nc1nc(NC2CC2)c2ncn([C@H]3C=C[C@@H](CO)C3)c2n1.Nc1nc(NC2CC2)c2ncn([C@H]3C=C[C@@H](CO)C3)c2n1.O=S(=O)(O)O [ABACAVIR SULFATE]
Compound NOT metabolized	CCN(CC)CCNC(=O)c1ccc(NC(C)=O)cc1 [ACECAINIDE]

Assay: as §1, with “WLS-052” for “Z-025”, “human” for “rabbit”, “ERS12561747” for “ERS12561824”
Conditions: 2 µM

Bacterial Biotransformation	SMILES
Compound NOT metabolized	Nc1nc(NC2CC2)c2ncn([C@H]3C=C[C@@H](CO)C3)c2n1.Nc1nc(NC2CC2)c2ncn([C@H]3C=C[C@@H](CO)C3)c2n1.O=S(=O)(O)O [ABACAVIR SULFATE]
Compound NOT metabolized	CCN(CC)CCNC(=O)c1ccc(NC(C)=O)cc1 [ACECAINIDE]

Assay: as §1, with “WLS-010” for “Z-025”, “human” for “rabbit”, “ERS12561743” for “ERS12561824”
Conditions: 2 µM

Bacterial Biotransformation	SMILES
Compound NOT metabolized	Nc1nc(NC2CC2)c2ncn([C@H]3C=C[C@@H](CO)C3)c2n1.Nc1nc(NC2CC2)c2ncn([C@H]3C=C[C@@H](CO)C3)c2n1.O=S(=O)(O)O [ABACAVIR SULFATE]
Compound NOT metabolized	CCN(CC)CCNC(=O)c1ccc(NC(C)=O)cc1 [ACECAINIDE]

Conditions: human gut metagenome, 24 h, 2 µM

Bacterial Biotransformation	SMILES
Compound NOT metabolized	Nc1nc(NC2CC2)c2ncn([C@H]3C=C[C@@H](CO)C3)c2n1.Nc1nc(NC2CC2)c2ncn([C@H]3C=C[C@@H](CO)C3)c2n1.O=S(=O)(O)O [ABACAVIR SULFATE]
Compound NOT metabolized	CCN(CC)CCNC(=O)c1ccc(NC(C)=O)cc1 [ACECAINIDE]

Conditions: human gut metagenome, 24 h, 2 µM
Remark: another data set of the same source

Bacterial Biotransformation	SMILES
Compound NOT metabolized	Nc1nc(NC2CC2)c2ncn([C@H]3C=C[C@@H](CO)C3)c2n1.Nc1nc(NC2CC2)c2ncn([C@H]3C=C[C@@H](CO)C3)c2n1.O=S(=O)(O)O [ABACAVIR SULFATE]
Compound NOT metabolized	CCN(CC)CCNC(=O)c1ccc(NC(C)=O)cc1 [ACECAINIDE]

Conditions: human gut metagenome, 24 h, 2 µM
Remark: another data set of the same source

Bacterial Biotransformation	SMILES
Compound metabolized	Nc1nc(NC2CC2)c2ncn([C@H]3C=C[C@@H](CO)C3)c2n1.Nc1nc(NC2CC2)c2ncn([C@H]3C=C[C@@H](CO)C3)c2n1.O=S(=O)(O)O [ABACAVIR SULFATE]
Compound NOT metabolized	CCN(CC)CCNC(=O)c1ccc(NC(C)=O)cc1 [ACECAINIDE]

Conditions: human gut metagenome, 24 h, 2 µM
Remark: another data set of the same source

Bacterial Biotransformation	SMILES
Compound metabolized	Nc1nc(NC2CC2)c2ncn([C@H]3C=C[C@@H](CO)C3)c2n1.Nc1nc(NC2CC2)c2ncn([C@H]3C=C[C@@H](CO)C3)c2n1.O=S(=O)(O)O [ABACAVIR SULFATE]
Compound NOT metabolized	CCN(CC)CCNC(=O)c1ccc(NC(C)=O)cc1 [ACECAINIDE]

Conditions: human gut metagenome, 24 h, 2 µM
Remark: another data set of the same source

Bacterial Biotransformation	SMILES
Compound metabolized	Nc1nc(NC2CC2)c2ncn([C@H]3C=C[C@@H](CO)C3)c2n1.Nc1nc(NC2CC2)c2ncn([C@H]3C=C[C@@H](CO)C3)c2n1.O=S(=O)(O)O [ABACAVIR SULFATE]
Compound metabolized	CCN(CC)CCNC(=O)c1ccc(NC(C)=O)cc1 [ACECAINIDE]

Conditions: human gut metagenome, 24 h, 2 µM
Remark: another data set of the same source

Bacterial Biotransformation	SMILES
Compound NOT metabolized	Nc1nc(NC2CC2)c2ncn([C@H]3C=C[C@@H](CO)C3)c2n1.Nc1nc(NC2CC2)c2ncn([C@H]3C=C[C@@H](CO)C3)c2n1.O=S(=O)(O)O [ABACAVIR SULFATE]
Compound NOT metabolized	CCN(CC)CCNC(=O)c1ccc(NC(C)=O)cc1 [ACECAINIDE]

Conditions: human gut metagenome, 24 h, 2 µM
Remark: another data set of the same source

Bacterial Biotransformation	SMILES
Compound metabolized	Nc1nc(NC2CC2)c2ncn([C@H]3C=C[C@@H](CO)C3)c2n1.Nc1nc(NC2CC2)c2ncn([C@H]3C=C[C@@H](CO)C3)c2n1.O=S(=O)(O)O [ABACAVIR SULFATE]
Compound NOT metabolized	CCN(CC)CCNC(=O)c1ccc(NC(C)=O)cc1 [ACECAINIDE]

Conditions: human gut metagenome, 24 h, 2 µM
Remark: another data set of the same source

Bacterial Biotransformation	SMILES
Compound metabolized	Nc1nc(NC2CC2)c2ncn([C@H]3C=C[C@@H](CO)C3)c2n1.Nc1nc(NC2CC2)c2ncn([C@H]3C=C[C@@H](CO)C3)c2n1.O=S(=O)(O)O [ABACAVIR SULFATE]
Compound metabolized	CCN(CC)CCNC(=O)c1ccc(NC(C)=O)cc1 [ACECAINIDE]
